The record followed here is patent US9428507B2, “Compounds for the treatment of malaria” (The Broad Institute, Inc., priority 2013, dated 2016).

The subject of the first assay is Dd2 strain of P. falciparum. Briefly: Activity against the Dd2 strain of P. falciparum (SYBR Green I, 72-h incubation). Conditions: Plasmodium falciparum, DD2, 72 h, read-out: EC^50 Dd2. The format is cell-based. The method, boiled down: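 SYBR Green I signal (ex 485, em 530 nm) measured growth, read after 24 h dark staining in saponin/Triton lysis buffer. Before that, compound-exposed Dd2 cultures (1% parasitemia, 1.0% hematocrit, 0.125% DMSO) grew 72 h at 37° C in low-oxygen gas. Background control: 20 μM mefloquine.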
`COc1ccc2c3c([nH]c2c1)[C@H](CO)N(Cc1ccc(Cl)cc1)CC31CCN(Cc2nccs2)CC1` [Compound 87, (R)-(2′-(4-chlorobenzyl)-7′-methoxy-1-(thiazol-2-ylmethyl)-1′,2′,3′,9′-tetrahydrospiro [piperidine-4,4′-pyrido[3,4-b]indol]-1′-yl)methanol]: the EC50 was determined as 78 nM.

As for `COc1ccc2c3c([nH]c2c1)[C@H](CO)N(C(=O)CN(C)C)CC31CCN(CC2CCCCC2)CC1` [Compound 89, (R)-1-(1-(cyclohexylmethyl)-1′-(hydroxymethyl)-7′-methoxyspiro [piperidine-4,4′-pyrido[3,4-b]indol]-2′(1′ H,3′H,9′H)-yl)-2-(dimethylamino)ethanone], the EC50 amounted to 432 nM.

As to `COc1ccc2c3c(n(C)c2c1)[C@@H](CO)N(C(=O)CN(C)C)CC31CCN(Cc2cccnc2)CC1` [Compound 90, (S)-2-(dimethylamino)-1-(1′-(hydroxymethyl)-7′-methoxy-9′-methyl-1-(pyridin-3-ylmethyl)spiro [piperidine-4,4′-pyrido[3,4-b]indol]-2′(1′H,3′H,9′H)-yl)ethanone], the EC50 was found to be 2610 nM.

In the case of `COc1ccc2c3c(n(C)c2c1)[C@H](CO)NCC31CCN(CC2CCCC2)CC1` [Compound 91, (R)-(1-(cyclopentylmethyl)-7′-methoxy-9′-methyl-1′,2′,3′,9′-tetrahydrospiro[piperidine-4,4′-pyrido[3,4-b]indol]-1′-yl)methanol], the EC50 stood at 481 nM.

Take `CCCN1CCC2(CC1)CN(Cc1ccccc1OC)[C@H](CO)c1c2c2ccc(OC)cc2n1C` [Compound 92, (S)-(7′-methoxy-2′-(2-methoxybenzyl)-9′-methyl-1-propyl-1′,2′,3′,9′-tetrahydrospiro [piperidine-4,4′-pyrido[3,4-b]indol]-1′-yl) methanol]: the EC50 was 681 nM.

Turning to `COc1ccc2c3c(n(C)c2c1)[C@@H](CO)N(C(=O)C1CC1)CC31CN(C(=O)Nc2cccc(F)c2)C1` [Compound 93, (S)-2′-(cyclopropanecarbonyl)-N-(3-fluorophenyl)-1′-(hydroxymethyl)-7′-methoxy-9′-methyl-1′,2′,3′,9′-tetrahydrospiro [azetidine-3,4′-pyrido[3,4-b]indole]-1-carboxamide], the EC50 is 195 nM.

In the case of `COc1ccc2c3c([nH]c2c1)[C@@H](CO)N(Cc1ccccc1)CC31CCN(Cc2cncnc2)CC1` [Compound 94, (S)-(2′-benzyl-7′-methoxy-1-(pyrimidin-5-ylmethyl)-1′,2′,3′,9′-tetrahydrospiro [piperidine-4,4′-pyrido[3,4-b]indol]-1′-yl) methanol], the EC50 amounted to 929 nM.

Regarding `COc1ccc2c3c(n(C)c2c1)[C@H](CO)N(CC1CC1)CC31CN(C(=O)c2ccc3c(c2)OCO3)C1` [Compound 95, (R)-benzo[d] [1,3]dioxol-5-yl(2′-(cyclopropylmethyl)-1′-(hydroxymethyl)-7′-methoxy-9′-methyl-1′,2′,3′,9′-tetrahydrospiro [azetidine-3,4′-pyrido[3,4-b]indol]-1-yl)methanone], the EC50 was 1260 nM.

On to `COc1ccc2c3c(n(C)c2c1)[C@H](CO)N(C(=O)Nc1ccc(F)cc1)CC31CCN(C)CC1` [Compound 96, (R)-N-(4-fluorophenyl)-1′-(hydroxymethyl)-7′-methoxy-1,9′-dimethyl-3′,9′-dihydrospiro[piperidine-4,4′-pyrido[3,4-b]indole]-2′(1′H)-carboxamide], for which the EC50 was found to be 2870 nM.

The assay is the same for the next values; noted with them: read-out: EC^50 Dd2.
Consider `COc1ccc2c3c(n(C)c2c1)[C@H](CO)N(Cc1ccc(Cl)cc1)CC31CCN(CC2CC2)CC1` [Compound 88, (R)-(2′-(4-chlorobenzyl)-1-(cyclopropylmethyl)-7′-methoxy-9′-methyl-1′,2′,3′,9′-tetrahydrospiro [piperidine-4,4′-pyrido[3,4-b]indol]-1′-yl)methanol], for which the EC50 is 1170 nM.
